The values below come from PubChem BioAssay AID330 (DTP/NCI, 2004).

For this assay, the system named is P388 leukemia ip, CD2F1 mice, survival T/C. Kind of assay: NCI In Vivo Anticancer Drug Screen. Data for tumor model P388 Leukemia (intraperitoneal) in CD2F1 (CDF1) mice. The following applies: endpoint: median survival time, higher = longer survival. In short, it runs like this:
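Mice carrying the transplanted tumor received test compound or vehicle. Survival was recorded in each group, and the value is the treated-group measurement divided by that of the vehicle-treated control group.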

Setting [1] is: dose: 50.0 mg/kg/injection, schedule: Q01DX005 (ip), vehicle: saline with Tween-80.
Setting [2] is: dose: 100.0 mg/kg/injection, schedule: Q01DX005 (ip), vehicle: saline with Tween-80.
Where [3] appears, read: dose: 200.0 mg/kg/injection, schedule: Q01DX005 (ip), vehicle: saline with Tween-80.
[4] abbreviates: dose: 12.5 mg/kg/injection, schedule: Q01DX009 (ip), vehicle: distilled water + Tween-80.
[5] abbreviates: dose: 25.0 mg/kg/injection, schedule: Q01DX009 (ip), vehicle: distilled water + Tween-80.
The mark [6] stands for this setting: dose: 100.0 mg/kg/injection, schedule: Q01DX001 (ip), vehicle: Klucel (hydroxypropylcellulose) (HPC).
The mark [7] stands for this setting: dose: 200.0 mg/kg/injection, schedule: Q01DX001 (ip), vehicle: Klucel (hydroxypropylcellulose) (HPC).
Setting [8] is: dose: 25.0 mg/kg/injection, schedule: Q01DX005 (ip), vehicle: saline with Tween-80.
Setting [9] is: dose: 50.0 mg/kg/injection, schedule: Q01DX009 (ip), vehicle: Klucel (hydroxypropylcellulose) (HPC).
[10] abbreviates: dose: 100.0 mg/kg/injection, schedule: Q01DX009 (ip), vehicle: Klucel (hydroxypropylcellulose) (HPC).
Setting [11] is: dose: 200.0 mg/kg/injection, schedule: Q01DX009 (ip), vehicle: Klucel (hydroxypropylcellulose) (HPC).
[12] abbreviates: dose: 50.0 mg/kg/injection, schedule: Q01DX005 (ip), vehicle: Klucel (hydroxypropylcellulose) (HPC).
Where [13] appears, read: dose: 100.0 mg/kg/injection, schedule: Q01DX005 (ip), vehicle: Klucel (hydroxypropylcellulose) (HPC).
Where [14] appears, read: dose: 200.0 mg/kg/injection, schedule: Q01DX005 (ip), vehicle: Klucel (hydroxypropylcellulose) (HPC).
Where [15] appears, read: dose: 6.25 mg/kg/injection, schedule: Q01DX009 (ip), vehicle: saline with Tween-80.
[16] abbreviates: dose: 12.5 mg/kg/injection, schedule: Q01DX009 (ip), vehicle: saline with Tween-80.
[17] abbreviates: dose: 50.0 mg/kg/injection, schedule: Q01DX009 (ip), vehicle: saline with Tween-80.

Where “and” joins values, the source holds several entries; their conditions need not be identical. Identical values can stand only once. Inconclusive results and toxic doses are left out.

In the case of `O=C1NC(=O)C2(OC3c4ccccc4C=CN3C3=C2C(=O)CC3)C(=O)N1` (centres undefined), the T/C is 97 % of control under setting [1], 91 % of control under setting [2] and 91 % of control under setting [3].

Consider `CCOC(CN=Cc1cc(C)c2[nH]c3ccccc3c2c1C)OCC`, for which the T/C reads like this: under setting [1], 97 % of control; under setting [2], 102 % of control; under setting [3], 102 % of control.

Consider `CC(=O)OC(OC(C)=O)c1ccc([N+](=O)[O-])c([N+](=O)[O-])c1`, for which the T/C was 104 % of control (dose: 12.5 mg/kg/injection, schedule: Q01DX010 (ip), vehicle: saline); 109 % of control (dose: 25.0 mg/kg/injection, schedule: Q01DX010 (ip), vehicle: saline); 100 % of control (dose: 50.0 mg/kg/injection, schedule: Q01DX010 (ip), vehicle: saline).

For the molecule `C1CCC2(CC1)CSSC2`, the T/C was 101 % of control (dose: 6.25 mg/kg/injection, schedule: Q04DX002 (ip), vehicle: saline with Tween-80) and 99 % of control (dose: 12.5 mg/kg/injection, schedule: Q04DX002 (ip), vehicle: saline with Tween-80).

With `O=C(NC1CC1)OCc1c(COC(=O)NC2CC2)c(-c2ccc(Cl)c(Cl)c2)n2c1CCC2`, the T/C is, setting by setting: (dose: 6.25 mg/kg/injection, schedule: Q01DX009 (ip), vehicle: distilled water + Tween-80) 160 % of control; under setting [4], 171 % of control and 183 % of control; under setting [5], 101 % of control and 206 % of control.

Take `Cc1nc2n(c1/C=N/O)CCS2`: the T/C is 90 % of control (dose: 50.0 mg/kg/injection, schedule: Q01DX001 (ip), vehicle: Klucel (hydroxypropylcellulose) (HPC)); 99 % of control under setting [6]; 93 % of control under setting [7].

For the molecule `Cc1ccc(NCCN2CCN(CCNc3ccc(C)c4sc5ccccc5c(=O)c34)CC2)c2c(=O)c3ccccc3sc12`, the T/C runs as follows: (dose: 6.25 mg/kg/injection, schedule: Q01DX005 (ip), vehicle: saline with Tween-80) 106 % of control; (dose: 12.5 mg/kg/injection, schedule: Q01DX005 (ip), vehicle: saline with Tween-80) 98 % of control; under setting [8], 105 % of control; under setting [1], 97 % of control.

In the case of `CCOC(=O)C(Cc1ccc([N+](=O)[O-])cc1)N1C(=O)c2ccccc2C1=O` (centres undefined), the T/C by setting is: (dose: 50.0 mg/kg/injection, schedule: Q01DX009 (ip), vehicle: distilled water + Tween-80 + alcohol) 98 % of control; (dose: 100.0 mg/kg/injection, schedule: Q01DX009 (ip), vehicle: distilled water + Tween-80 + alcohol) 89 % of control; (dose: 200.0 mg/kg/injection, schedule: Q01DX009 (ip), vehicle: distilled water + Tween-80 + alcohol) 92 % of control.

Consider `CCN(CC)C(=O)c1cc(=O)c(C)c2oc3c(C)c(O)c(N)c(C(=O)N(CC)CC)c3nc1-2`, for which the T/C was 92 % of control (dose: 60.0 mg/kg/injection, schedule: Q01DX005 (ip), vehicle: Klucel (hydroxypropylcellulose) (HPC)); 87 % of control (dose: 120.0 mg/kg/injection, schedule: Q01DX005 (ip), vehicle: Klucel (hydroxypropylcellulose) (HPC)); 86 % of control (dose: 240.0 mg/kg/injection, schedule: Q01DX005 (ip), vehicle: Klucel (hydroxypropylcellulose) (HPC)).

For `Cc1ccc(-n2c3nc(=O)n(C)c(=O)c-3nc3ccccc32)cc1C`, the T/C was 95 % of control under setting [6] and 92 % of control under setting [7].

Take `CCCCC/C=C\C/C=C\CCCCCCCC(=O)O`: the T/C was 93 % of control under setting [9]; 112 % of control under setting [10]; 107 % of control under setting [11]; 101 % of control (dose: 400.0 mg/kg/injection, schedule: Q01DX009 (ip), vehicle: Klucel (hydroxypropylcellulose) (HPC)).

For `CC(C)S(=O)(=O)c1ccc(Cl)cc1[N+](=O)[O-]`, the T/C by setting is: under setting [9], 100 % of control; under setting [10], 99 % of control; under setting [11], 99 % of control.

Consider `O=C1OC[C@H]2[C@H](c3ccc(O)c(O)c3)c3cc(O)c(O)cc3C[C@H]12`, for which the T/C was 95 % of control under setting [1], 95 % of control under setting [2] and 92 % of control under setting [3].

On to `COc1cc(C2OCC3C(c4cc(OC)c(OC)c(OC)c4)OCC23)cc(OC)c1OC` (centres undefined), for which the T/C runs as follows: under setting [12], 102 % of control; under setting [13], 100 % of control; under setting [14], 102 % of control.

On to `FC(F)(F)S.[Hg]`, for which the T/C is 95 % of control (dose: 2.5 mg/kg/injection, schedule: Q04DX003 (ip), vehicle: saline); 100 % of control (dose: 5.0 mg/kg/injection, schedule: Q04DX003 (ip), vehicle: saline); 95 % of control (dose: 10.0 mg/kg/injection, schedule: Q04DX003 (ip), vehicle: saline).

As to `C=C(COC(C)=O)CC(CC(=C)CC(OC(C)=O)Sc1ccccc1)S(=O)(=O)c1ccccc1` (centres undefined), the T/C is 106 % of control (dose: 60.0 mg/kg/injection, schedule: Q01DX005 (ip), vehicle: saline + Tween-80 + alcohol); 104 % of control (dose: 120.0 mg/kg/injection, schedule: Q01DX005 (ip), vehicle: saline + Tween-80 + alcohol); 104 % of control (dose: 240.0 mg/kg/injection, schedule: Q01DX005 (ip), vehicle: saline + Tween-80 + alcohol).

Turning to `CSc1nc(N)c(NS(=O)(=O)c2ccccc2[N+](=O)[O-])c(=O)[nH]1`, the T/C under setting [12] was 100 % of control, the T/C under setting [13] was 90 % of control and the T/C under setting [14] was 90 % of control.

As for `O=Cc1ccccc1C=O`, the T/C is, setting by setting: (dose: 100.0 mg/kg/injection, schedule: Q04DX002 (ip), vehicle: saline with Tween-80) 98 % of control; (dose: 200.0 mg/kg/injection, schedule: Q04DX002 (ip), vehicle: saline with Tween-80) 107 % of control; (dose: 400.0 mg/kg/injection, schedule: Q04DX002 (ip), vehicle: saline with Tween-80) 102 % of control.

In the case of `CC(C)(C)C1CCN(Cc2ccccc2)CC1`, the T/C reads like this: under setting [8], 103 % of control; under setting [1], 103 % of control; under setting [2], 100 % of control.

On to `Clc1ccccc1C=NCC1CCC(CN=Cc2ccccc2Cl)CC1` (centres undefined), for which the T/C reads like this: under setting [15], 99 % of control; under setting [16], 101 % of control; (dose: 25.0 mg/kg/injection, schedule: Q01DX009 (ip), vehicle: saline with Tween-80) 100 % of control; under setting [17], 116 % of control.

On to `Cn1c(/C=C/CO)c(CO)c2c1C(=O)C=C(N1CC1)C2=O`, for which the T/C is 106 % of control (dose: 1.5 mg/kg/injection, schedule: Q01DX005 (ip), vehicle: saline) and 94 % of control (dose: 3.0 mg/kg/injection, schedule: Q01DX005 (ip), vehicle: saline).

With `N#Cc1ccc(NC(=O)Nc2nccs2)cc1`, the T/C under setting [4] is 108 % of control and the T/C under setting [5] is 117 % of control.

Turning to `Cc1cc(N2CCN(c3cc(C)c4ccccc4n3)CC2)nc2ccccc12`, the T/C is 100 % of control under setting [17]; 95 % of control (dose: 100.0 mg/kg/injection, schedule: Q01DX009 (ip), vehicle: saline with Tween-80); 100 % of control (dose: 200.0 mg/kg/injection, schedule: Q01DX009 (ip), vehicle: saline with Tween-80).

Take `O=C(c1ccccc1)c1no[n+]([O-])c1C(=O)c1ccccc1`: the T/C by setting is: (dose: 3.12 mg/kg/injection, schedule: Q01DX009 (ip), vehicle: Klucel (hydroxypropylcellulose) (HPC)) 102 % of control and 114 % of control and 116 % of control; (dose: 6.25 mg/kg/injection, schedule: Q01DX009 (ip), vehicle: Klucel (hydroxypropylcellulose) (HPC)) 100 % of control and 117 % of control; (dose: 12.5 mg/kg/injection, schedule: Q01DX009 (ip), vehicle: Klucel (hydroxypropylcellulose) (HPC)) 105 % of control and 123 % of control.

With `CC(C)[c-]1[c-][c-][c-][c-]1.CC(C)[c-]1[c-][c-][c-][c-]1.[Cl][Zr][Cl]`, the T/C is 112 % of control (dose: 3.12 mg/kg/injection, schedule: Q01DX009 (ip), vehicle: saline with Tween-80); 119 % of control under setting [15]; 117 % of control under setting [16].
